Experimental data from US20250197382A1, “KIF18A INHIBITOR” (WIGEN BIOMEDICINE TECHNOLOGY (SHANGHAI) CO., LTD., priority 2022, published 2025).

These molecules were tested against Recombinant human KIF18A (1-467His-tagged) protein (Homo sapiens (Human), UniProt Q8NI77) (assay: KIF18A enzyme assay (microtubule-stimulated ATPase activity, ADP-Glo)). Settings: 30 nM KIF18A, ATP 75 μM, read-out: inhibitory activity against KIF18A IC50.
Sequence of Recombinant human KIF18A (1-467His-tagged) protein (Q8NI77 1-467): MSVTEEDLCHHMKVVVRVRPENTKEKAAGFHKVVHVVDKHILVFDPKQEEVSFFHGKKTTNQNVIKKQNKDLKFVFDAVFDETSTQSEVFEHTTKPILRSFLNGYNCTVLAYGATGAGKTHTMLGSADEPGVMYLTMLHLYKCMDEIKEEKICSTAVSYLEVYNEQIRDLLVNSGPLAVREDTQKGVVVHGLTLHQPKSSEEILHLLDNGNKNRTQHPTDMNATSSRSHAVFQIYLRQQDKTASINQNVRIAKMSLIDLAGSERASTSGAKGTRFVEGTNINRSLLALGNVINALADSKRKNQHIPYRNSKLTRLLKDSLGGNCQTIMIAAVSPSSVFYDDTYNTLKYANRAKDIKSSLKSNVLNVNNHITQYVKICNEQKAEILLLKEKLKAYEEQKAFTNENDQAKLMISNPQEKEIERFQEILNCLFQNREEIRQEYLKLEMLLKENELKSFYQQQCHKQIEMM
Sequence of Recombinant human KIF18A (1-467His-tagged) protein (P02550 whole entry partner): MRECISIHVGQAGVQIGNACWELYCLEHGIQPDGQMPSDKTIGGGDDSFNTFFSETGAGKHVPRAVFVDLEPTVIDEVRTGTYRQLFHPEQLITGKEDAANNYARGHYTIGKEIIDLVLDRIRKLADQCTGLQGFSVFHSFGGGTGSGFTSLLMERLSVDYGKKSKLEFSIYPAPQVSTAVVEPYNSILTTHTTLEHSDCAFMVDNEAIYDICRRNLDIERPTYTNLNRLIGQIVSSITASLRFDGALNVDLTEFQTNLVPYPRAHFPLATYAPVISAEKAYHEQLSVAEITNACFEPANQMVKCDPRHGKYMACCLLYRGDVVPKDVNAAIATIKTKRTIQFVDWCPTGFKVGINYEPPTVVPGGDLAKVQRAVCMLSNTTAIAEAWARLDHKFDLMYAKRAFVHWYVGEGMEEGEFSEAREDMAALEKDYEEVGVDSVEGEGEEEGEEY
Sequence of Recombinant human KIF18A (1-467His-tagged) protein (P02554 whole entry partner): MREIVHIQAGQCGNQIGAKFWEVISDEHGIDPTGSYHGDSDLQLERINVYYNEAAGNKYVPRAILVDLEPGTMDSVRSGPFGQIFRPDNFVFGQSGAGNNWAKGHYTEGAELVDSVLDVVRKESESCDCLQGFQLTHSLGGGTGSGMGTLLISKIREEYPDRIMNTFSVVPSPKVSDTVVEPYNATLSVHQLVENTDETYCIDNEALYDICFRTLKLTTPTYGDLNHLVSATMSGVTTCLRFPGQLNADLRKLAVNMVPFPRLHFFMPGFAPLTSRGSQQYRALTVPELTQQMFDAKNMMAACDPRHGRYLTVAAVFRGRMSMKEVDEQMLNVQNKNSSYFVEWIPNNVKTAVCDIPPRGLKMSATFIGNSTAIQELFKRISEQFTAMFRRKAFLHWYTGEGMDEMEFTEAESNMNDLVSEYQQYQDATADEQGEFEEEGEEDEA
Assay type: biochemical
Summary of the method: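 Baculovirus-expressed human KIF18A (1-467, His-tagged; 30 nM) preincubated 15 min at room temperature with compound (22-point 2-fold series) in pH 7.5 Tris buffer containing 30 μg/mL pig microtubules and 1 μM paclitaxel.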
C[C@H](CO)NS(=O)(=O)c1ccc(C(=O)Nc2cc3ccn(C)c3c(N3CCO[C@H](C)C3)n2)c(N2CCC3(CC2)CC3)c1 [Compound 480] gave an IC50 of no more than 0.1 µM.
In the case of C[C@@H]1CN(c2nc(C(=O)Nc3ccc(NS(=O)(=O)CCO)cc3N3CCC4(CC3)CC4)cc3ccn(C)c23)CCO1 [Compound 482], the IC50 is reported as no more than 0.1 µM.
With C[C@H]1CN(c2nc(C(=O)Nc3ccc(NS(=O)(=O)CCO)cc3N3CCC4(CC3)CC4)cc3ccn(C)c23)CCO1 [Compound 483] the IC50 was no more than 0.1 µM.
Work on Cn1ccc2cc(C(=O)Nc3ccc(NS(=O)(=O)CCO)cc3N3CCC4(CC3)CC4)nc(N3CC(F)(F)C3)c21 [Compound 484] yielded an IC50 of no more than 0.1 µM.
Molecule Cn1ccc2cc(C(=O)Nc3ccc(NS(=O)(=O)CCO)cc3N3CCC4(CC3)CC4)nc(OCCC(F)(F)F)c21 [Compound 485] has an IC50 of no more than 0.1 µM.
Cn1ccc2cc(C(=O)Nc3ccc(NS(=O)(=O)CCO)cc3N3CCC4(CC3)CC4)nc(N3CCC4(CC4)C3)c21 [Compound 486] gave an IC50 of no more than 0.1 µM.
In the case of Cn1ccc2cc(C(=O)Nc3ccc(NS(=O)(=O)CCO)cc3N3CCC4(CC3)CC4)nc(OC3CCC3)c21 [Compound 487], the IC50 is reported as no more than 0.1 µM.
Molecule Cn1ccc2cc(C(=O)Nc3ccc(NS(=O)(=O)CCO)cc3N3CCC4(CC3)CC4)nc(N3CCC(C)(F)C3)c21 (centres unmarked) [Compound 488] has an IC50 of no more than 0.1 µM.
For Cn1ccc2cc(C(=O)Nc3ccc(NS(=O)(=O)CCO)cc3N3CCC4(CC3)CC4)nc(N3CCC(F)CC3)c21 [Compound 489], the IC50 was no more than 0.1 µM.
With Cn1ccc2cc(C(=O)Nc3ccc(NS(=O)(=O)CCO)cc3N3CCC4(CC3)CC4)nc(N3CC4CC4C3)c21 (centres unmarked) [Compound 490] the IC50 was no more than 0.1 µM.
Work on Cn1ccc2cc(C(=O)Nc3ccc(NS(=O)(=O)CCO)cc3N3CCC4(CC3)CC4)nc(NC(C)(C)CO)c21 [Compound 491] yielded an IC50 of no more than 0.1 µM.
Work on Cn1ccc2cc(C(=O)Nc3ccc(NS(=O)(=O)CCO)cc3N3CCC4(CC3)CC4)nc(N3CCOCC3)c21 [Compound 492] yielded an IC50 of no more than 0.1 µM.
Molecule C[C@@H](CO)S(=O)(=O)Nc1ccc(NC(=O)c2cc3ccn(C)c3c(N3CCC(F)(F)CC3)n2)c(N2CCC3(CC2)CC3)c1 [Compound 493] has an IC50 of no more than 0.1 µM.
With C[C@H](CO)S(=O)(=O)Nc1ccc(NC(=O)c2cc3ccn(C)c3c(N3CCC(F)(F)CC3)n2)c(N2CCC3(CC2)CC3)c1 [Compound 494] the IC50 was no more than 0.1 µM.
For C[C@@H]1CN(c2nc(C(=O)Nc3ccc(NS(=O)(=O)[C@@H](C)CO)cc3N3CCC4(CC3)CC4)cc3ccn(C)c23)CCO1 [Compound 495], the IC50 was no more than 0.1 µM.
With C[C@@H]1CN(c2nc(C(=O)Nc3ccc(NS(=O)(=O)[C@H](C)CO)cc3N3CCC4(CC3)CC4)cc3ccn(C)c23)CCO1 [Compound 496] the IC50 was no more than 0.1 µM.
Cn1ccc2cc(C(=O)Nc3ccc(S(=O)(=O)NCCO)cc3N3CCC4(CC3)CC4)nc(N3CCC(F)(F)CC3)c21 [Compound 497] gave an IC50 of no more than 0.1 µM.
In the case of C[C@@H]1CN(c2nc(C(=O)Nc3ccc(S(=O)(=O)NCCO)cc3N3CCC4(CC3)CC4)cc3ccn(C)c23)CCO1 [Compound 498], the IC50 is reported as no more than 0.1 µM.
Molecule C[C@H]1CN(c2nc(C(=O)Nc3ccc(S(=O)(=O)NCCO)cc3N3CCC4(CC3)CC4)cc3ccn(C)c23)CCO1 [Compound 499] has an IC50 of no more than 0.1 µM.
Cn1ccc2cc(C(=O)Nc3ccc(S(=O)(=O)NCCO)cc3N3CCC4(CC3)CC4)nc(N3CC(F)(F)C3)c21 [Compound 500] gave an IC50 of no more than 0.1 µM.
Cn1ccc2cc(C(=O)Nc3ccc(S(=O)(=O)NCCO)cc3N3CCC4(CC3)CC4)nc(OCCC(F)(F)F)c21 [Compound 501] gave an IC50 of no more than 0.1 µM.
Cn1ccc2cc(C(=O)Nc3ccc(S(=O)(=O)NCCO)cc3N3CCC4(CC3)CC4)nc(N3CCC4(CC4)C3)c21 [Compound 502] was tested, and the IC50 was no more than 0.1 µM.
With Cn1ccc2cc(C(=O)Nc3ccc(S(=O)(=O)NCCO)cc3N3CCC4(CC3)CC4)nc(OC3CCC3)c21 [Compound 503] the IC50 was no more than 0.1 µM.
In the case of Cn1ccc2cc(C(=O)Nc3ccc(S(=O)(=O)NCCO)cc3N3CCC4(CC3)CC4)nc(N3CCC(C)(F)C3)c21 (centres unmarked) [Compound 504], the IC50 is reported as no more than 0.1 µM.
Cn1ccc2cc(C(=O)Nc3ccc(S(=O)(=O)NCCO)cc3N3CCC4(CC3)CC4)nc(N3CCC(F)CC3)c21 [Compound 505] showed an IC50 of no more than 0.1 µM.
Molecule Cn1ccc2cc(C(=O)Nc3ccc(S(=O)(=O)NCCO)cc3N3CCC4(CC3)CC4)nc(N3CC4CC4C3)c21 (centres unmarked) [Compound 506] has an IC50 of no more than 0.1 µM.
With Cn1ccc2cc(C(=O)Nc3ccc(S(=O)(=O)NCCO)cc3N3CCC4(CC3)CC4)nc(NC(C)(C)CO)c21 [Compound 507] the IC50 was no more than 0.1 µM.
Cn1ccc2cc(C(=O)Nc3ccc(S(=O)(=O)NCCO)cc3N3CCC4(CC3)CC4)nc(N3CCOCC3)c21 [Compound 508] gave an IC50 of no more than 0.1 µM.
C[C@@H](CO)NS(=O)(=O)c1ccc(NC(=O)c2cc3ccn(C)c3c(N3CCC(F)(F)CC3)n2)c(N2CCC3(CC2)CC3)c1 [Compound 509] gave an IC50 of no more than 0.1 µM.
Work on C[C@H](CO)NS(=O)(=O)c1ccc(NC(=O)c2cc3ccn(C)c3c(N3CCC(F)(F)CC3)n2)c(N2CCC3(CC2)CC3)c1 [Compound 510] yielded an IC50 of no more than 0.1 µM.
C[C@@H]1CN(c2nc(C(=O)Nc3ccc(S(=O)(=O)N[C@@H](C)CO)cc3N3CCC4(CC3)CC4)cc3ccn(C)c23)CCO1 [Compound 511] showed an IC50 of no more than 0.1 µM.
In the case of C[C@H](CO)NS(=O)(=O)c1ccc(NC(=O)c2cc3ccn(C)c3c(N3CCO[C@H](C)C3)n2)c(N2CCC3(CC2)CC3)c1 [Compound 512], the IC50 is reported as no more than 0.1 µM.
O=C(Nc1cc2ncoc2c(N2CCC(F)(F)CC2)n1)c1ccc(NS(=O)(=O)CCO)cc1N1CCC2(CC1)CC2 [Compound 514] was tested, and the IC50 was no more than 0.1 µM.
O=C(Nc1cc(N2CCC(F)(F)CC2)c2scnc2c1)c1ccc(NS(=O)(=O)CCO)cc1N1CCC2(CC1)CC2 [Compound 515] was tested, and the IC50 was no more than 0.1 µM.
With O=C(Nc1cc2ncsc2c(N2CCC(F)(F)CC2)n1)c1ccc(NS(=O)(=O)CCO)cc1N1CCC2(CC1)CC2 [Compound 516] the IC50 was no more than 0.1 µM.
O=C(Nc1cc(N2CCC(F)(F)CC2)c2ncoc2c1)c1ccc(NS(=O)(=O)CCO)cc1N1CCC2(CC1)CC2 [Compound 517] was tested, and the IC50 was no more than 0.1 µM.
O=C(Nc1cc2ocnc2c(N2CCC(F)(F)CC2)n1)c1ccc(NS(=O)(=O)CCO)cc1N1CCC2(CC1)CC2 [Compound 518] was tested, and the IC50 was no more than 0.1 µM.
O=C(Nc1cc(N2CCC(F)(F)CC2)c2ncsc2c1)c1ccc(NS(=O)(=O)CCO)cc1N1CCC2(CC1)CC2 [Compound 519] gave an IC50 of no more than 0.1 µM.
Molecule O=C(Nc1cc2scnc2c(N2CCC(F)(F)CC2)n1)c1ccc(NS(=O)(=O)CCO)cc1N1CCC2(CC1)CC2 [Compound 520] has an IC50 of no more than 0.1 µM.
O=C(Nc1cc(N2CCC(F)(F)CC2)c2[nH]ccc2c1)c1ccc(NS(=O)(=O)CCO)cc1N1CCC2(CC1)CC2 [Compound 521] gave an IC50 of no more than 0.1 µM.
O=C(Nc1cc2c(c(N3CCC(F)(F)CC3)c1)NCC2)c1ccc(NS(=O)(=O)CCO)cc1N1CCC2(CC1)CC2 [Compound 523] gave an IC50 of no more than 0.1 µM.
O=C(Nc1cc2c(c(N3CCC(F)(F)CC3)n1)NCC2)c1ccc(NS(=O)(=O)CCO)cc1N1CCC2(CC1)CC2 [Compound 524] showed an IC50 of no more than 0.1 µM.
In the case of O=C(Nc1cc(N2CCC(F)(F)CC2)c2[nH]cnc2c1)c1ccc(NS(=O)(=O)CCO)cc1N1CCC2(CC1)CC2 [Compound 525], the IC50 is reported as no more than 0.1 µM.
O=C(Nc1cc2nc[nH]c2c(N2CCC(F)(F)CC2)n1)c1ccc(NS(=O)(=O)CCO)cc1N1CCC2(CC1)CC2 [Compound 526] was tested, and the IC50 was no more than 0.1 µM.
With Cn1cnc2cc(NC(=O)c3ccc(NS(=O)(=O)CCO)cc3N3CCC4(CC3)CC4)cc(N3CCC(F)(F)CC3)c21 [Compound 528] the IC50 was no more than 0.1 µM.
In the case of O=C(Nc1cc(N2CCC(F)(F)CC2)c2ccccc2c1)c1ccc(NS(=O)(=O)CCO)cc1N1CCC2(CC1)CC2 [Compound 529], the IC50 is reported as 0.1 to 0.5 µM.
O=C(Nc1cc2c(c(N3CCC(F)(F)CC3)c1)CCCC2)c1ccc(NS(=O)(=O)CCO)cc1N1CCC2(CC1)CC2 [Compound 531] was tested, and the IC50 was 0.1 to 0.5 µM.
O=C(Nc1cc2c(c(N3CCC(F)(F)CC3)c1)CCC2)c1ccc(NS(=O)(=O)CCO)cc1N1CCC2(CC1)CC2 [Compound 532] showed an IC50 of no more than 0.1 µM.
Molecule O=C(Nc1cc2ccnn2c(N2CCC(F)(F)CC2)n1)c1ccc(NS(=O)(=O)CCO)cc1N1CCC2(CC1)CC2 [Compound 534] has an IC50 of no more than 0.1 µM.
O=C(Nc1cc(N2CCC(F)(F)CC2)c2nccn2c1)c1ccc(NS(=O)(=O)CCO)cc1N1CCC2(CC1)CC2 [Compound 535] was tested, and the IC50 was no more than 0.1 µM.
In the case of O=C(Nc1cn2ccnc2c(N2CCC(F)(F)CC2)n1)c1ccc(NS(=O)(=O)CCO)cc1N1CCC2(CC1)CC2 [Compound 536], the IC50 is reported as no more than 0.1 µM.
Work on O=C(Nc1cc2c(c(N3CCC(F)(F)CC3)n1)OCO2)c1ccc(NS(=O)(=O)CCO)cc1N1CCC2(CC1)CC2 [Compound 538] yielded an IC50 of no more than 0.1 µM.
O=C(Nc1cc2c(c(N3CCC(F)(F)CC3)n1)OCCC2)c1ccc(NS(=O)(=O)CCO)cc1N1CCC2(CC1)CC2 [Compound 540] was tested, and the IC50 was no more than 0.1 µM.
Work on O=C(Nc1cc2c(c(N3CCC(F)(F)CC3)c1)NCCC2)c1ccc(NS(=O)(=O)CCO)cc1N1CCC2(CC1)CC2 [Compound 541] yielded an IC50 of no more than 0.1 µM.
O=C(Nc1cc2c(c(N3CCC(F)(F)CC3)n1)NCCC2)c1ccc(NS(=O)(=O)CCO)cc1N1CCC2(CC1)CC2 [Compound 542] gave an IC50 of no more than 0.1 µM.
Work on O=C(Nc1cc2c(c(N3CCC(F)(F)CC3)c1)OCCO2)c1ccc(NS(=O)(=O)CCO)cc1N1CCC2(CC1)CC2 [Compound 543] yielded an IC50 of no more than 0.1 µM.
O=C(Nc1cc2c(c(N3CCC(F)(F)CC3)n1)OCCO2)c1ccc(NS(=O)(=O)CCO)cc1N1CCC2(CC1)CC2 [Compound 544] showed an IC50 of no more than 0.1 µM.
O=C(Nc1ccc(NS(=O)(=O)CCO)cc1N1CCC2(CC1)CC2)c1cc2c(c(N3CCC(F)(F)CC3)c1)OCCC2 [Compound 545] was tested, and the IC50 was no more than 0.1 µM.
Molecule O=C(Nc1cc2c(c(N3CCC(F)(F)CC3)c1)OCCC2)c1ccc(S(=O)(=O)NCCO)cc1N1CCC2(CC1)CC2 [Compound 546] has an IC50 of no more than 0.1 µM.
For O=C(Nc1ccc(S(=O)(=O)NCCO)cc1N1CCC2(CC1)CC2)c1cc2c(c(N3CCC(F)(F)CC3)c1)OCCC2 [Compound 547], the IC50 was no more than 0.1 µM.
For O=C(Nc1ccc(NS(=O)(=O)CCO)cc1N1CCC2(CC1)CC2)c1cc2c(c(N3CCC(F)(F)CC3)n1)OCCC2 [Compound 548], the IC50 was no more than 0.1 µM.
Molecule O=C(Nc1cc2c(c(N3CCC(F)(F)CC3)n1)OCCC2)c1ccc(S(=O)(=O)NCCO)cc1N1CCC2(CC1)CC2 [Compound 549] has an IC50 of no more than 0.1 µM.
